Values of other authors as cited in patent publication US6503396B2 (priority 2000, dated 2003).

Legend:
ovarian cancer = ovarian cancer patients who exhibited no response to conventional anti-cancer drugs
breast cancer = breast cancer patients who exhibited no response to conventional anti-cancer drugs
lung cancer = lung cancer patients who exhibited no response to conventional anti-cancer drugs

CC(=O)O[C@H]1C(=O)[C@@]2(C)[C@H]([C@H](OC(=O)c3ccccc3)[C@]3(O)C[C@H](OC(=O)[C@H](O)[C@@H](NC(=O)c4ccccc4)c4ccccc4)C(C)=C1C3(C)C)[C@]1(OC(C)=O)CO[C@@H]1C[C@@H]2O [taxol]
response rate to taxol (ovarian cancer): 30% | response rate to taxol (breast cancer): 50% | response rate to taxol (lung cancer): 20%
